Measured values as given in PubChem BioAssay (NCI).
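In this assay, cells in 96-well plates receive the compound at five concentrations for 48 hours. Endpoints are linearly interpolated between the surrounding concentrations. TGI: concentration producing complete growth inhibition.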

Key:
Test in all cases: inhibition of tumour cell growth, NCI panel, 48 h
PC-3 prostate = test system: PC-3 prostate
U251 CNS = test system: U251 CNS
OVCAR-5 ovarian = test system: OVCAR-5 ovarian
HL-60(TB) leukemia = test system: HL-60(TB) leukemia
K-562 leukemia = test system: K-562 leukemia
786-0 renal = test system: 786-0 renal
HOP-62 NSCLC = test system: HOP-62 NSCLC
SF-295 CNS = test system: SF-295 CNS
KM12 colon = test system: KM12 colon
UACC-257 melanoma = test system: UACC-257 melanoma
MDA-N = test system: MDA-N
EKVX NSCLC = test system: EKVX NSCLC
MOLT-4 leukemia = test system: MOLT-4 leukemia
SNB-19 CNS = test system: SNB-19 CNS
OVCAR-4 ovarian = test system: OVCAR-4 ovarian
M14 melanoma = test system: M14 melanoma
LOX IMVI melanoma = test system: LOX IMVI melanoma
UO-31 renal = test system: UO-31 renal
ACHN renal = test system: ACHN renal
RXF 393 renal = test system: RXF 393 renal
OVCAR-3 ovarian = test system: OVCAR-3 ovarian
TK-10 renal = test system: TK-10 renal
HCC-2998 colon = test system: HCC-2998 colon
NCI-H23 lung = test system: NCI-H23 lung
SF-268 CNS = test system: SF-268 CNS
DU-145 prostate = test system: DU-145 prostate
HT29 colon = test system: HT29 colon
BT-549 breast = test system: BT-549 breast
A498 renal = test system: A498 renal
SK-MEL-28 melanoma = test system: SK-MEL-28 melanoma
SNB-75 CNS = test system: SNB-75 CNS
UACC-62 melanoma = test system: UACC-62 melanoma
MCF7 breast = test system: MCF7 breast
MDA-MB-231 breast = test system: MDA-MB-231 breast
SW-620 colon = test system: SW-620 colon
CCRF-CEM leukemia = test system: CCRF-CEM leukemia
SN12C renal = test system: SN12C renal
NCI-H522 lung = test system: NCI-H522 lung
SK-MEL-5 melanoma = test system: SK-MEL-5 melanoma
NCI/ADR-RES ovarian = test system: NCI/ADR-RES ovarian
HCT-116 colon = test system: HCT-116 colon
T-47D breast = test system: T-47D breast
SR leukemia = test system: SR leukemia
MDA-MB-435 = test system: MDA-MB-435
CAKI-1 renal = test system: CAKI-1 renal
SK-MEL-2 melanoma = test system: SK-MEL-2 melanoma
SK-OV-3 ovarian = test system: SK-OV-3 ovarian
MALME-3M melanoma = test system: MALME-3M melanoma
HCT-15 colon = test system: HCT-15 colon
HOP-92 NSCLC = test system: HOP-92 NSCLC
SF-539 CNS = test system: SF-539 CNS
A549 NSCLC = test system: A549 NSCLC
NCI-H460 lung = test system: NCI-H460 lung
HS 578T breast = test system: HS 578T breast
COLO 205 colon = test system: COLO 205 colon
OVCAR-8 ovarian = test system: OVCAR-8 ovarian
NCI-H226 lung = test system: NCI-H226 lung
IGROV1 ovarian = test system: IGROV1 ovarian

In the case of `COc1cccc2c1-c1ccccc1[C@H](Nc1ccccc1)[C@@]2(C)O`, the TGI (PC-3 prostate) is reported as 19 µM, the TGI (U251 CNS) is reported as 16.3 µM and the TGI (OVCAR-5 ovarian) is reported as 28.2 µM. It also gave a TGI (HL-60(TB) leukemia) of 26.8 µM, a TGI (K-562 leukemia) of over 100 µM and a TGI (786-0 renal) of 20.2 µM. It also gave a TGI (HOP-62 NSCLC) of 19 µM, a TGI (SF-295 CNS) of 15.8 µM and a TGI (KM12 colon) of 15.6 µM. The TGI (UACC-257 melanoma) was 19.7 µM, the TGI (MDA-N) was 5.25 µM and the TGI (EKVX NSCLC) was 25.1 µM. The TGI (MOLT-4 leukemia) was over 100 µM, the TGI (SNB-19 CNS) was 19.3 µM and the TGI (OVCAR-4 ovarian) was 25.7 µM. The TGI (M14 melanoma) was 14.8 µM, the TGI (LOX IMVI melanoma) was 28 µM and the TGI (UO-31 renal) was 16.9 µM. For the same compound, the TGI (ACHN renal) was 21.6 µM, the TGI (RXF 393 renal) was 11 µM and the TGI (OVCAR-3 ovarian) was 7.85 µM. It also gave a TGI (TK-10 renal) of 22.1 µM, a TGI (HCC-2998 colon) of 19.7 µM and a TGI (NCI-H23 lung) of 23.2 µM. It also gave a TGI (SF-268 CNS) of 21.1 µM, a TGI (DU-145 prostate) of 17.7 µM and a TGI (HT29 colon) of 14 µM. The TGI (BT-549 breast) was 23.3 µM, the TGI (A498 renal) was 22 µM and the TGI (SK-MEL-28 melanoma) was 26.7 µM. It also gave a TGI (SNB-75 CNS) of 6.85 µM, a TGI (UACC-62 melanoma) of 21.6 µM and a TGI (MCF7 breast) of 17.2 µM. For the same compound, the TGI (MDA-MB-231 breast) was 24.3 µM, the TGI (SW-620 colon) was 30 µM and the TGI (CCRF-CEM leukemia) was 50.9 µM. For the same compound, the TGI (SN12C renal) was 16.8 µM, the TGI (NCI-H522 lung) was 8.49 µM and the TGI (SK-MEL-5 melanoma) was 14.1 µM. The TGI (NCI/ADR-RES ovarian) was 15.2 µM, the TGI (HCT-116 colon) was 15 µM and the TGI (T-47D breast) was 30.2 µM. For the same compound, the TGI (SR leukemia) was 22.9 µM, the TGI (MDA-MB-435) was 6.14 µM and the TGI (CAKI-1 renal) was 17.5 µM. The TGI (SK-MEL-2 melanoma) was 19.9 µM, the TGI (SK-OV-3 ovarian) was 21.3 µM and the TGI (MALME-3M melanoma) was 22.1 µM. The TGI (HCT-15 colon) was 18.9 µM, the TGI (HOP-92 NSCLC) was 26 µM and the TGI (SF-539 CNS) was 11.6 µM. It also gave a TGI (A549 NSCLC) of 22.2 µM, a TGI (NCI-H460 lung) of 14 µM and a TGI (HS 578T breast) of 32 µM. The TGI (COLO 205 colon) was 10.4 µM, the TGI (OVCAR-8 ovarian) was 31 µM and the TGI (NCI-H226 lung) was 15.6 µM.

`C/C=C/[C@@H]1[C@H]2C(=O)[C@]3(Cl)[C@@H](/C=C/C)[C@@H]3C(=O)[C@@]12Cl` gave a TGI (PC-3 prostate) of over 100 µM, a TGI (U251 CNS) of over 100 µM and a TGI (OVCAR-5 ovarian) of over 100 µM. The TGI (HL-60(TB) leukemia) was over 100 µM, the TGI (K-562 leukemia) was over 100 µM and the TGI (786-0 renal) was over 100 µM. It also gave a TGI (HOP-62 NSCLC) of over 100 µM, a TGI (SF-295 CNS) of over 100 µM and a TGI (KM12 colon) of over 100 µM. For the same compound, the TGI (UACC-257 melanoma) was over 100 µM, the TGI (MDA-N) was over 100 µM and the TGI (EKVX NSCLC) was over 100 µM. It also gave a TGI (MOLT-4 leukemia) of over 100 µM, a TGI (SNB-19 CNS) of over 100 µM and a TGI (OVCAR-4 ovarian) of over 100 µM. For the same compound, the TGI (M14 melanoma) was over 100 µM, the TGI (LOX IMVI melanoma) was over 100 µM and the TGI (UO-31 renal) was over 100 µM. It also gave a TGI (ACHN renal) of over 100 µM, a TGI (RXF 393 renal) of over 100 µM and a TGI (OVCAR-3 ovarian) of over 100 µM. The TGI (TK-10 renal) was over 100 µM, the TGI (HCC-2998 colon) was over 100 µM and the TGI (NCI-H23 lung) was over 100 µM. It also gave a TGI (SF-268 CNS) of over 100 µM, a TGI (DU-145 prostate) of over 100 µM and a TGI (HT29 colon) of over 100 µM. The TGI (BT-549 breast) was over 100 µM, the TGI (A498 renal) was over 100 µM and the TGI (SK-MEL-28 melanoma) was over 100 µM. For the same compound, the TGI (SNB-75 CNS) was over 100 µM, the TGI (UACC-62 melanoma) was over 100 µM and the TGI (MCF7 breast) was over 100 µM. It also gave a TGI (MDA-MB-231 breast) of over 100 µM, a TGI (SW-620 colon) of over 100 µM and a TGI (CCRF-CEM leukemia) of over 100 µM. It also gave a TGI (SN12C renal) of over 100 µM, a TGI (NCI-H522 lung) of over 100 µM and a TGI (SK-MEL-5 melanoma) of over 100 µM. For the same compound, the TGI (NCI/ADR-RES ovarian) was over 100 µM, the TGI (HCT-116 colon) was over 100 µM and the TGI (T-47D breast) was over 100 µM. It also gave a TGI (SR leukemia) of over 100 µM, a TGI (IGROV1 ovarian) of over 100 µM and a TGI (MDA-MB-435) of over 100 µM. The TGI (CAKI-1 renal) was over 100 µM, the TGI (SK-MEL-2 melanoma) was over 100 µM and the TGI (SK-OV-3 ovarian) was over 100 µM. For the same compound, the TGI (MALME-3M melanoma) was over 100 µM, the TGI (HCT-15 colon) was over 100 µM and the TGI (HOP-92 NSCLC) was over 100 µM. The TGI (SF-539 CNS) was over 100 µM, the TGI (A549 NSCLC) was over 100 µM and the TGI (NCI-H460 lung) was over 100 µM. The TGI (HS 578T breast) was over 100 µM, the TGI (COLO 205 colon) was over 100 µM and the TGI (OVCAR-8 ovarian) was over 100 µM. The TGI (NCI-H226 lung) was over 100 µM.
